Results reported in ChEMBL document CHEMBL1201862, “PubChem BioAssay data set” (2004).
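Five compound concentrations were applied to cells in 96-well plates for 48 hours; endpoints were derived by simple linear interpolation of the resulting dose-response curve. GI50 marks 50% less growth.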 Calls of active or inactive are those of the source. Cut-off read from the data, not from the text of the source: active = GI50 up to about 1.1 µM and inactive = higher.

Assays:
Experiment in all cases: NCI-60 cell line screen, 48 h
786-0 = system: 786-0
A498 = system: A498
A549 = system: A549
ACHN = system: ACHN
CAKI-1 = system: CAKI-1
CCRF-CEM = system: CCRF-CEM
COLO 205 = system: COLO 205
DMS-114 = system: DMS-114
EKVX = system: EKVX
HCC 2998 = system: HCC 2998
HCT-116 = system: HCT-116
HL-60 = system: HL-60
HOP-18 = system: HOP-18
HOP-62 = system: HOP-62
HOP-92 = system: HOP-92
HT-29 = system: HT-29
IGROV-1 = system: IGROV-1
K562 = system: K562
KM-20L2 = system: KM-20L2
KM12 = system: KM12
LOX IMVI = system: LOX IMVI
LXFL 529 = system: LXFL 529
M14 = system: M14
M19-MEL = system: M19-MEL
MOLT-4 = system: MOLT-4
Malme-3M = system: Malme-3M
NCI-H226 = system: NCI-H226
NCI-H23 = system: NCI-H23
NCI-H460 = system: NCI-H460
NCI-H522 = system: NCI-H522
OVCAR-3 = system: OVCAR-3
OVCAR-4 = system: OVCAR-4
OVCAR-8 = system: OVCAR-8
RXF 393 = system: RXF 393
RXF 631 = system: RXF 631
SF-268 = system: SF-268
SF-295 = system: SF-295
SF-539 = system: SF-539
SK-MEL-28 = system: SK-MEL-28
SK-MEL-5 = system: SK-MEL-5
SK-OV-3 = system: SK-OV-3
SN12C = system: SN12C
SNB-19 = system: SNB-19
SNB-75 = system: SNB-75
SNB-78 = system: SNB-78
SR = system: SR
SW-620 = system: SW-620
TK-10 = system: TK-10
U-251 = system: U-251
UACC-257 = system: UACC-257
UACC-62 = system: UACC-62
UO-31 = system: UO-31
XF498 = system: XF498
DMS-273 = system: DMS-273
HCT-15 = system: HCT-15
OVCAR-5 = system: OVCAR-5
RPMI-8226 = system: RPMI-8226
SK-MEL-2 = system: SK-MEL-2

CC(Oc1ccc2cc(C(=O)c3ccccc3)c(=O)oc2c1)C(=O)O (stereo not given)
GI50 (786-0): > 100 µM (inactive)
GI50 (A498): > 100 µM (inactive)
GI50 (A549): > 100 µM (inactive)
GI50 (ACHN): > 100 µM (inactive)
GI50 (CAKI-1): > 100 µM (inactive)
GI50 (CCRF-CEM): > 100 µM (inactive)
GI50 (COLO 205): > 100 µM (inactive)
GI50 (DMS-114): > 100 µM (inactive)
GI50 (EKVX): > 100 µM (inactive)
GI50 (HCC 2998): > 100 µM (inactive)
GI50 (HCT-116): > 100 µM (inactive)
GI50 (HL-60): > 100 µM (inactive)
GI50 (HOP-18): > 100 µM (inactive)
GI50 (HOP-62): > 100 µM (inactive)
GI50 (HOP-92): > 100 µM (inactive)
GI50 (HT-29): > 100 µM (inactive)
GI50 (IGROV-1): > 100 µM (inactive)
GI50 (K562): > 100 µM (inactive)
GI50 (KM-20L2): > 100 µM (inactive)
GI50 (KM12): > 100 µM (inactive)
GI50 (LOX IMVI): > 100 µM (inactive)
GI50 (LXFL 529): > 100 µM (inactive)
GI50 (M14): > 100 µM (inactive)
GI50 (M19-MEL): > 100 µM (inactive)
GI50 (MOLT-4): > 100 µM (inactive)
GI50 (Malme-3M): > 100 µM (inactive)
GI50 (NCI-H226): > 100 µM (inactive)
GI50 (NCI-H23): > 100 µM (inactive)
GI50 (NCI-H460): > 100 µM (inactive)
GI50 (NCI-H522): > 100 µM (inactive)
GI50 (OVCAR-3): > 100 µM (inactive)
GI50 (OVCAR-4): > 100 µM (inactive)
GI50 (OVCAR-8): > 100 µM (inactive)
GI50 (RXF 393): > 100 µM (inactive)
GI50 (RXF 631): > 100 µM (inactive)
GI50 (SF-268): > 100 µM (inactive)
GI50 (SF-295): > 100 µM (inactive)
GI50 (SF-539): > 100 µM (inactive)
GI50 (SK-MEL-28): > 100 µM (inactive)
GI50 (SK-MEL-5): > 100 µM (inactive)
GI50 (SK-OV-3): > 100 µM (inactive)
GI50 (SN12C): > 100 µM (inactive)
GI50 (SNB-19): > 100 µM (inactive)
GI50 (SNB-75): > 100 µM (inactive)
GI50 (SNB-78): > 100 µM (inactive)
GI50 (SR): > 100 µM (inactive)
GI50 (SW-620): > 100 µM (inactive)
GI50 (TK-10): > 100 µM (inactive)
GI50 (U-251): > 100 µM (inactive)
GI50 (UACC-257): > 100 µM (inactive)
GI50 (UACC-62): > 100 µM (inactive)
GI50 (UO-31): > 100 µM (inactive)
GI50 (XF498): > 100 µM (inactive)

CS(=O)(=O)c1ccc(-c2cc(-c3ccc(S(C)(=O)=O)cc3)[n+](-c3cc(-c4ccccc4)c([O-])c(-c4ccccc4)c3)c(-c3ccc(S(C)(=O)=O)cc3)c2)cc1
GI50 (786-0): > 100 µM (inactive)
GI50 (A498): 44.7 µM (inactive)
GI50 (A549): > 100 µM (inactive)
GI50 (ACHN): > 100 µM (inactive)
GI50 (CAKI-1): > 100 µM (inactive)
GI50 (COLO 205): > 100 µM (inactive)
GI50 (DMS-114): > 100 µM (inactive)
GI50 (DMS-273): > 100 µM (inactive)
GI50 (EKVX): > 100 µM (inactive)
GI50 (HCC 2998): > 100 µM (inactive)
GI50 (HCT-116): > 100 µM (inactive)
GI50 (HCT-15): > 100 µM
GI50 (HOP-18): > 100 µM (inactive)
GI50 (HOP-62): > 100 µM (inactive)
GI50 (HT-29): > 100 µM (inactive)
GI50 (IGROV-1): > 100 µM (inactive)
GI50 (K562): > 100 µM (inactive)
GI50 (KM-20L2): > 100 µM (inactive)
GI50 (KM12): > 100 µM (inactive)
GI50 (LOX IMVI): > 100 µM (inactive)
GI50 (LXFL 529): > 100 µM (inactive)
GI50 (M14): > 100 µM (inactive)
GI50 (M19-MEL): > 100 µM (inactive)
GI50 (MOLT-4): > 100 µM (inactive)
GI50 (Malme-3M): > 100 µM (inactive)
GI50 (NCI-H226): > 100 µM (inactive)
GI50 (NCI-H23): > 100 µM (inactive)
GI50 (NCI-H460): > 100 µM (inactive)
GI50 (NCI-H522): > 100 µM (inactive)
GI50 (OVCAR-3): > 100 µM (inactive)
GI50 (OVCAR-4): > 100 µM (inactive)
GI50 (OVCAR-5): > 100 µM (inactive)
GI50 (OVCAR-8): > 100 µM (inactive)
GI50 (RPMI-8226): > 100 µM (inactive)
GI50 (RXF 393): > 100 µM (inactive)
GI50 (RXF 631): > 100 µM (inactive)
GI50 (SF-268): > 100 µM (inactive)
GI50 (SF-295): > 100 µM (inactive)
GI50 (SF-539): > 100 µM (inactive)
GI50 (SK-MEL-28): > 100 µM (inactive)
GI50 (SK-MEL-2): > 100 µM (inactive)
GI50 (SN12C): > 100 µM (inactive)
GI50 (SNB-19): > 100 µM (inactive)
GI50 (SNB-78): > 100 µM (inactive)
GI50 (SR): > 100 µM (inactive)
GI50 (SW-620): > 100 µM (inactive)
GI50 (TK-10): > 100 µM (inactive)
GI50 (U-251): > 100 µM (inactive)
GI50 (UACC-257): 38.5 µM (inactive)
GI50 (UACC-62): > 100 µM (inactive)
GI50 (UO-31): > 100 µM (inactive)
GI50 (XF498): > 100 µM (inactive)
